US11471481B2, “Rapid-deposition thin-film forming compositions as effective wound care treatment” (priority 2016, dated 2022)
Read-outs that look alike come from different tables or passages of the source.

How the values were obtained:
human skin fibroblast = conditions: cited from earlier work
[1] = Solubility of PVP-I in different organic solvents; type: physicochemical
Method: PVP-I is a polymer complex soluble in water.
To make PVP-I liquid bandage solutions to form rapid-deposition film on skin surface, low boiling-point volatile solvents were selected to study solubility of PVP-I and the time required for the solvent to evaporate to dryness. […] When ethanol alone was the solvent, the drying time was 3 minutes 27 seconds. A mixed solvent has even shorter drying time. Particularly, when the mixed solvent contains acetone and isopentane (which have low boiling points), drying time had been shortened to less than 2 minutes, as the mixed solvents could form azeotropes, which was easier to evaporate. Isopentane had some irritation to skin, and thus its dosage could not be too high. From the study, dosage greater than 15% of isopentane could not shorten the drying time, but instead increase the skin irritation. n-Pentane is not used because of its pungent smell. Therefore, after a preliminary study, ethanol, ethyl acetate, acetone and isopentane alone or combinations were chosen as the solvent phase in this invention.

Q: Which Fibroblast growth (human skin fibroblast; 0.01% and 0.025% PVP-I solutions) does the source give for Povidone iodine [PVP-I] here?
A: The Fibroblast growth was “progressively retarded”.

Q: And the Fibroblast growth (human skin fibroblast; 0.1% and 1% PVP-I solutions)?
A: The Fibroblast growth was “totally inhibited”.

Q: What about the “Solubility of PVP-I in ethanol” value ([1]; ethanol) of the same substance?
A: The value was “readily soluble”.

Q: And the “Solubility of PVP-I in ethyl acetate, acetone, isopentane and n-pentane” value ([1]; ethyl acetate, acetone, isopentane, n-pentane)?
A: Its value is “insoluble”.
